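Five compound concentrations were applied to cells in 96-well plates for 48 hours; endpoints were derived by simple linear interpolation of the resulting dose-response curve. Definition used: TGI = concentration required for complete inhibition of growth.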
Columns and labels:
Assay in all cases: inhibition of tumour cell growth, NCI panel, 48 h
[1] = test system: 786-0 renal
[2] = test system: A498 renal
[3] = test system: A549 NSCLC
[4] = test system: ACHN renal
[5] = test system: CCRF-CEM leukemia
[6] = test system: COLO 205 colon
[7] = test system: DLD-1 colon
[8] = test system: DMS 114 small cell lung
[9] = test system: DMS 273 small cell lung
[10] = test system: EKVX NSCLC
[11] = test system: HCC-2998 colon
[12] = test system: HCT-116 colon
[13] = test system: HCT-15 colon
[14] = test system: HL-60(TB) leukemia
[15] = test system: HOP-18 NSCLC
[16] = test system: HOP-62 NSCLC
[17] = test system: HOP-92 NSCLC
[18] = test system: HT29 colon
[19] = test system: IGROV1 ovarian
[20] = test system: K-562 leukemia
[21] = test system: KM12 colon
[22] = test system: KM20L2 colon
[23] = test system: LOX IMVI melanoma
[24] = test system: LXFL 529 NSCLC
[25] = test system: M14 melanoma
[26] = test system: M19-MEL melanoma
[27] = test system: MALME-3M melanoma
[28] = test system: MOLT-4 leukemia
[29] = test system: NCI-H226 lung
[30] = test system: NCI-H23 lung
[31] = test system: NCI-H460 lung
[32] = test system: NCI-H522 lung
[33] = test system: OVCAR-3 ovarian
[34] = test system: OVCAR-4 ovarian
[35] = test system: OVCAR-8 ovarian
[36] = test system: RXF 393 renal
[37] = test system: RXF-631 renal
[38] = test system: SF-268 CNS
[39] = test system: SF-295 CNS
[40] = test system: SF-539 CNS
[41] = test system: SK-MEL-2 melanoma
[42] = test system: SK-MEL-28 melanoma
[43] = test system: SK-MEL-5 melanoma
[44] = test system: SNB-78 CNS
[45] = test system: SR leukemia
[46] = test system: SW-620 colon
[47] = test system: TK-10 renal
[48] = test system: U251 CNS
[49] = test system: UACC-257 melanoma
[50] = test system: UACC-62 melanoma
[51] = test system: UO-31 renal
[52] = test system: XF 498 CNS
[53] = test system: CAKI-1 renal
[54] = test system: OVCAR-5 ovarian
[55] = test system: SK-OV-3 ovarian
[56] = test system: SN12C renal
[57] = test system: SNB-19 CNS
[58] = test system: SNB-75 CNS
[59] = test system: RPMI-8226 leukemia

COc1ccc(C(c2ccccc2)(c2ccc(OC)cc2)N2C(=O)NC3C(CCCCC(=O)NCCCCCCOP(OCCC#N)N(C(C)C)C(C)C)SCC32)cc1 (centres undefined)
TGI [1]: 35.9 µM
TGI [2]: 35 µM
TGI [3]: 41.8 µM
TGI [4]: 29.9 µM
TGI [5]: 25.6 µM
TGI [6]: 40.7 µM
TGI [7]: 29.4 µM
TGI [8]: 36.8 µM
TGI [9]: 25.3 µM
TGI [10]: 56.5 µM
TGI [11]: 31.6 µM
TGI [12]: 24.9 µM
TGI [13]: 35.6 µM
TGI [14]: 32.1 µM
TGI [15]: 24.4 µM
TGI [16]: 36.6 µM
TGI [17]: 35 µM
TGI [18]: 31.7 µM
TGI [19]: 40.3 µM
TGI [20]: 32.2 µM
TGI [21]: 34 µM
TGI [22]: 30.8 µM
TGI [23]: 24 µM
TGI [24]: 25.2 µM
TGI [25]: 34.2 µM
TGI [26]: 33.1 µM
TGI [27]: 33.5 µM
TGI [28]: 28.5 µM
TGI [29]: 30.4 µM
TGI [30]: 32.3 µM
TGI [31]: 33.8 µM
TGI [32]: 27.3 µM
TGI [33]: 28.1 µM
TGI [34]: 40 µM
TGI [35]: 90.6 µM
TGI [36]: 24.2 µM
TGI [37]: 17.7 µM
TGI [38]: 30.6 µM
TGI [39]: 31.2 µM
TGI [40]: 28.1 µM
TGI [41]: 24.9 µM
TGI [42]: 29 µM
TGI [43]: 31 µM
TGI [44]: 34.6 µM
TGI [45]: 27.2 µM
TGI [46]: 43.8 µM
TGI [47]: 35.7 µM
TGI [48]: 28.5 µM
TGI [49]: 42.6 µM
TGI [50]: 27.4 µM
TGI [51]: 27.5 µM
TGI [52]: 30.8 µM

C[C@@H]1C[C@H]2[C@@H]3CCC4=CC(=O)C=C[C@]4(C)[C@@]3(F)[C@@H](O)C[C@]2(C)[C@@]1(O)C(=O)CO
TGI [1]: > 100 µM
TGI [3]: > 100 µM
TGI [4]: > 100 µM
TGI [53]: > 100 µM
TGI [5]: > 100 µM
TGI [6]: > 100 µM
TGI [7]: > 100 µM
TGI [8]: > 100 µM
TGI [10]: > 100 µM
TGI [12]: > 100 µM
TGI [13]: > 100 µM
TGI [14]: > 100 µM
TGI [16]: > 100 µM
TGI [17]: > 100 µM
TGI [18]: > 100 µM
TGI [19]: > 100 µM
TGI [20]: > 100 µM
TGI [21]: > 100 µM
TGI [22]: > 100 µM
TGI [23]: > 100 µM
TGI [24]: > 100 µM
TGI [25]: > 100 µM
TGI [26]: > 100 µM
TGI [27]: > 100 µM
TGI [28]: > 100 µM
TGI [29]: > 100 µM
TGI [30]: > 100 µM
TGI [32]: > 100 µM
TGI [33]: > 100 µM
TGI [34]: > 100 µM
TGI [54]: > 100 µM
TGI [35]: > 100 µM
TGI [41]: > 100 µM
TGI [42]: > 100 µM
TGI [43]: > 100 µM
TGI [55]: > 100 µM
TGI [56]: > 100 µM
TGI [45]: > 100 µM
TGI [46]: > 100 µM
TGI [47]: > 100 µM
TGI [49]: > 100 µM
TGI [50]: > 100 µM
TGI [51]: > 100 µM

CCN(CC)CCCNc1nccc2c(C)c3c(cc12)c1cnccc1n3C
TGI [1]: 1.2 µM
TGI [2]: 2.61 µM
TGI [3]: 1.37 µM
TGI [4]: 2.41 µM
TGI [53]: 1.03 µM
TGI [5]: 0.415 µM
TGI [6]: 1.4 µM
TGI [7]: 0.266 µM
TGI [8]: 0.463 µM
TGI [9]: 0.181 µM
TGI [10]: 1.52 µM
TGI [11]: 0.256 µM
TGI [12]: 0.378 µM
TGI [13]: 0.779 µM
TGI [16]: 0.571 µM
TGI [18]: 1.02 µM
TGI [19]: 2.75 µM
TGI [20]: 1.04 µM
TGI [22]: 1.93 µM
TGI [23]: 0.268 µM
TGI [25]: 1.12 µM
TGI [26]: 2.67 µM
TGI [30]: 1.18 µM
TGI [31]: 0.14 µM
TGI [33]: 0.735 µM
TGI [34]: 0.131 µM
TGI [35]: 1.25 µM
TGI [38]: 1.69 µM
TGI [39]: 1.31 µM
TGI [40]: 0.609 µM
TGI [42]: 1.47 µM
TGI [43]: 1.82 µM
TGI [55]: 2.73 µM
TGI [56]: 1.75 µM
TGI [57]: 1.51 µM
TGI [58]: 1.74 µM
TGI [44]: 2.76 µM
TGI [46]: 1.48 µM
TGI [47]: 3.26 µM
TGI [48]: 1.77 µM
TGI [50]: 2.25 µM
TGI [51]: 2.32 µM
TGI [52]: 0.923 µM

Cc1c(C)c2ccc3oc4ccccc4c3c2oc1=O
TGI [1]: > 100 µM
TGI [2]: > 100 µM
TGI [3]: > 100 µM
TGI [4]: > 100 µM
TGI [53]: > 100 µM
TGI [5]: > 100 µM
TGI [6]: > 100 µM
TGI [7]: > 100 µM
TGI [8]: > 100 µM
TGI [10]: > 100 µM
TGI [11]: > 100 µM
TGI [12]: > 100 µM
TGI [13]: > 100 µM
TGI [14]: > 100 µM
TGI [15]: > 100 µM
TGI [16]: > 100 µM
TGI [17]: > 100 µM
TGI [18]: > 100 µM
TGI [19]: > 100 µM
TGI [20]: > 100 µM
TGI [21]: > 100 µM
TGI [22]: > 100 µM
TGI [23]: > 100 µM
TGI [24]: > 100 µM
TGI [25]: > 100 µM
TGI [26]: > 100 µM
TGI [27]: > 100 µM
TGI [28]: > 100 µM
TGI [29]: > 100 µM
TGI [30]: > 100 µM
TGI [31]: > 100 µM
TGI [32]: > 100 µM
TGI [33]: > 100 µM
TGI [34]: > 100 µM
TGI [54]: > 100 µM
TGI [35]: > 100 µM
TGI [59]: > 100 µM
TGI [36]: > 100 µM
TGI [37]: > 100 µM
TGI [38]: > 100 µM
TGI [39]: > 100 µM
TGI [40]: > 100 µM
TGI [42]: > 100 µM
TGI [43]: > 100 µM
TGI [55]: > 100 µM
TGI [56]: > 100 µM
TGI [57]: > 100 µM
TGI [58]: > 100 µM
TGI [44]: > 100 µM
TGI [45]: > 100 µM
TGI [46]: > 100 µM
TGI [47]: > 100 µM
TGI [48]: > 100 µM
TGI [49]: > 100 µM
TGI [50]: > 100 µM
TGI [51]: > 100 µM
